Test results taken from the supplement of paper PMC11061612.

What was measured:
Experiment in all cases: Bliss excess, mean over the matrix (fraction); higher = more synergy
[1] = test system: BICR78 (Oral Cavity Carcinoma)
Method in brief: (§1)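 Bliss excess equals the observed combination effect minus the expected value EA + EB − EA·EB, where EA and EB are the effects of each agent alone. Combination Emax is the second-highest inhibition within the matrix. Inhibition was scaled from CellTiter-Glo 2.0 luminescence, with 0 set by vehicle wells and 1 by blank wells, after 72 hours of two-drug dosing of cells plated in 1536-well plates.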

[2] = test system: CAL-39 (Other Solid Carcinomas)
Method in brief: as §1

[3] = test system: CS1 (Chondrosarcoma)
Method in brief: as §1

[4] = test system: D-392MG (Glioblastoma)
Method in brief: as §1

[5] = test system: DOK (Oral Cavity Carcinoma)
Method in brief: as §1

[6] = test system: EW-22 (Ewing's Sarcoma)
Method in brief: as §1

[7] = test system: H4 (Low Grade Glioma)
Method in brief: as §1

[8] = test system: HCC38 (Breast Carcinoma)
Method in brief: as §1

[9] = test system: HCT-116 (Colorectal Carcinoma)
Method in brief: as §1

[10] = test system: HLE (Hepatocellular Carcinoma)
Method in brief: as §1

[11] = test system: MEG-01 (Chronic Myelogenous Leukemia)
Method in brief: as §1

[12] = test system: NOMO-1 (Acute Myeloid Leukemia)
Method in brief: as §1

[13] = test system: P31-FUJ (Acute Myeloid Leukemia)
Method in brief: as §1

[14] = test system: SLVL (B-Cell Non-Hodgkin's Lymphoma)
Method in brief: as §1

[15] = test system: SNG-M (Endometrial Carcinoma)
Method in brief: as §1

[16] = test system: SW48 (Colorectal Carcinoma)
Method in brief: as §1

[17] = test system: SW948 (Colorectal Carcinoma)
Method in brief: as §1

[18] = test system: Saos-2 (Osteosarcoma)
Method in brief: as §1

[19] = test system: TC-YIK (Other Solid Carcinomas)
Method in brief: as §1

[20] = test system: YT (Other Blood Carcinomas)
Method in brief: as §1

| Compound | Bliss excess [1] | Bliss excess [2] | Bliss excess [3] | Bliss excess [4] | Bliss excess [5] | Bliss excess [6] | Bliss excess [7] | Bliss excess [8] | Bliss excess [9] | Bliss excess [10] | Bliss excess [11] | Bliss excess [12] | Bliss excess [13] | Bliss excess [14] | Bliss excess [15] | Bliss excess [16] | Bliss excess [17] | Bliss excess [18] | Bliss excess [19] | Bliss excess [20] |
| --- | --- | --- | --- | --- | --- | --- | --- | --- | --- | --- | --- | --- | --- | --- | --- | --- | --- | --- | --- | --- |
| C[C@@H](Oc1cc(-c2cnn(C3CCNCC3)c2)cnc1N)c1c(Cl)ccc(F)c1Cl [Crizotinib] + Cn1cnc2c(F)c(Nc3ccc(Br)cc3Cl)c(C(=O)NOCCO)cc21 [Selumetinib] (first compound max 10 µM, 7x7, partner max 10 µM) | 0.0006 | 0.0132 | -0.0203 | -0.0718 | 0.017 | -0.0226 | 0.0034 | -0.0447 | 0.0323 | 0.0014 | 0.0179 | 0.0157 | -0.0781 | -0.0414 | -0.0333 | -0.0323 | 0.0137 | -0.0337 | -0.0663 | -0.0587 |
| O=C(c1cc(Cc2n[nH]c(=O)c3ccccc23)ccc1F)N1CCN(C(=O)C2CC2)CC1 [Olaparib] + CC1(C)CCC(CN2CCN(c3ccc(C(=O)NS(=O)(=O)c4ccc(NCC5CCOCC5)c([N+](=O)[O-])c4)c(Oc4cnc5[nH]ccc5c4)c3)CC2)=C(c2ccc(Cl)cc2)C1 [Venetoclax] (first compound max 10 µM, 7x7, partner max 1 µM) | -0.0733 | -0.0425 | -0.0621 | -0.0886 | -0.0426 | 0.0348 | -0.011 | -0.0247 | -0.0156 | -0.0308 | -0.0377 | 0.0666 | -0.0121 | 0.0864 | -0.0347 | -0.0239 | -0.0528 | -0.0289 | -0.0304 | 0.0335 |
| O=C(c1cc(Cc2n[nH]c(=O)c3ccccc23)ccc1F)N1CCN(C(=O)C2CC2)CC1 [Olaparib] + CN(CC[C@H](CSC1=CC=CC=C1)NC2=C(C=C(C=C2)S(=O)(=O)NC(=O)C3=CC=C(C=C3)N4CCC(CC4)[C@H](C5=CC=CC=C5C6=CC=C(C=C6)Cl)O)S(=O)(=O)C(F)(F)F)CCO [AZD4320] (first compound max 10 µM, 7x7, partner max 1 µM) | -0.0656 | -0.0242 | -0.0342 | -0.0317 | -0.101 | 0.0385 | 0.0106 | -0.0541 | -0.0103 | -0.0213 | -0.009 | 0.034 | -0.131 | 0.0356 | -0.014 | -0.0239 | -0.0165 | -0.0312 | 0.0047 | -0.0505 |
| O=C(c1cc(Cc2n[nH]c(=O)c3ccccc23)ccc1F)N1CCN(C(=O)C2CC2)CC1 [Olaparib] + COc1nnc2ccc(N3CCC(c4ccc(OCCN5CCN(C)C(=O)[C@H]5C)cc4)CC3)nn12 [AZD5153] (first compound max 10 µM, 7x7, partner max 1 µM) | -0.0458 | -0.0634 | -0.0718 | -0.0759 | -0.0404 | 0.0369 | -0.0248 | -0.0793 | -0.0206 | -0.0392 | -0.0579 | -0.0589 | -0.0621 | 0.0142 | -0.0663 | -0.071 | -0.0441 | -0.02 | -0.0784 | -0.107 |
| O=C(c1cc(Cc2n[nH]c(=O)c3ccccc23)ccc1F)N1CCN(C(=O)C2CC2)CC1 [Olaparib] + Cc1c2c(nn1C)CSCc1cc(n(C)n1)CSc1cc(c3ccccc3c1)OCCCc1c(C(=O)O)n(C)c3c-2c(Cl)ccc13 [AZD5991] (first compound max 10 µM, 7x7, partner max 1 µM) | -0.0643 | -0.0409 | -0.0483 | -0.0661 | -0.0192 | -0.016 | 0.0256 | -0.0457 | -0.0086 | -0.0144 | -0.0416 | -0.0167 | -0.0125 | -0.0034 | 0.002 | -0.0253 | -0.0449 | -0.0087 | -0.0566 | 0.0191 |
| N#Cc1cnc(Nc2cc(NC[C@H]3CNCCO3)c(C(F)(F)F)cn2)cn1 [SRA737] + C=CCn1c(=O)c2cnc(Nc3ccc(N4CCN(C)CC4)cc3)nc2n1-c1cccc(C(C)(C)O)n1 [AZD1775] (first compound max 10 µM, partner max 1 µM) | -0.0326 | -0.0255 | 0.0399 | -0.0523 | -0.0139 | 0.0315 | 0.0327 | 0.0088 | 0.0011 | 0.013 | -0.0314 | 0.0706 | 0.0411 | 0.0581 | -0.0045 | 0.0468 | 0.0054 | 0.0939 | 0.0278 | 0.0379 |
| N#Cc1cnc(Nc2cc(NC[C@H]3CNCCO3)c(C(F)(F)F)cn2)cn1 [SRA737] + CCc1c2c(nc3ccc(O)cc13)-c1cc3c(c(=O)n1C2)COC(=O)[C@]3(O)CC [SN-38] (first compound max 10 µM, 7x7, partner max 0.3 µM) | -0.0015 | -0.0157 | -0.0579 | -0.0555 | -0.0531 | -0.0592 | -0.0029 | -0.049 | -0.0306 | -0.0755 | 0.0468 | -0.039 | -0.0541 | -0.0909 | -0.111 | -0.0411 | 0.154 | -0.0303 | -0.0041 | -0.0677 |
| N#Cc1cnc(Nc2cc(NC[C@H]3CNCCO3)c(C(F)(F)F)cn2)cn1 [SRA737] + Nc1ccn([C@@H]2O[C@H](CO)[C@@H](O)C2(F)F)c(=O)n1 [Gemcitabine] (first compound max 10 µM, 7x7, partner max 0.3 µM) | 0.068 | 0.0461 | 0.0679 | 0.0579 | 0.0191 | -0.0202 | 0.0511 | -0.0054 | 0.0063 | 0.029 | -0.0324 | -0.0169 | 0.057 | 0.0004 | -0.0731 | 0.0107 | 0.079 | 0.0276 | -0.0605 | 0.0694 |
| N#Cc1cnc(Nc2cc(NC[C@H]3CNCCO3)c(C(F)(F)F)cn2)cn1 [SRA737] + O=c1[nH]cc(F)c(=O)[nH]1 [5-Fluorouracil] (first compound max 10 µM, 7x7, partner max 20 µM) | 0.0904 | 0.0175 | -0.0251 | -0.0369 | 0.0382 | 0.0416 | -0.0189 | 0.0257 | 0.0445 | -0.0146 | -0.0518 | -0.0007 | -0.0034 | -0.0551 | -0.0115 | -0.0588 | -0.0314 | -0.0179 | 0.0119 | 0.0012 |
| CC1(C)CCC(CN2CCN(c3ccc(C(=O)NS(=O)(=O)c4ccc(NCC5CCOCC5)c([N+](=O)[O-])c4)c(Oc4cnc5[nH]ccc5c4)c3)CC2)=C(c2ccc(Cl)cc2)C1 [Venetoclax] + CS(=O)(=O)CCNCc1ccc(-c2ccc3ncnc(Nc4ccc(OCc5cccc(F)c5)c(Cl)c4)c3c2)o1 [Lapatinib] (first compound max 1 µM, 7x7, partner max 10 µM) | -0.0451 | -0.0062 | -0.0662 | -0.0732 | -0.0301 | 0.0031 | -0.0188 | -0.0355 | -0.0369 | -0.0347 | -0.0101 | 0.0105 | 0.0811 | 0.017 | -0.0166 | 0.0163 | -0.0407 | -0.0131 | -0.0035 | 0.0123 |
